Assay [1] deals with Matrix metalloproteinase-9 (Homo sapiens, UniProt P14780).
Description: Inhibitory activity against the Matrix metalloprotease-9
A further assay has as its target Neutrophil collagenase (Homo sapiens, UniProt P22894).
The target of another assay is T1, Interstitial collagenase (Homo sapiens, UniProt P03956).
T1 sequence (P03956 whole entry): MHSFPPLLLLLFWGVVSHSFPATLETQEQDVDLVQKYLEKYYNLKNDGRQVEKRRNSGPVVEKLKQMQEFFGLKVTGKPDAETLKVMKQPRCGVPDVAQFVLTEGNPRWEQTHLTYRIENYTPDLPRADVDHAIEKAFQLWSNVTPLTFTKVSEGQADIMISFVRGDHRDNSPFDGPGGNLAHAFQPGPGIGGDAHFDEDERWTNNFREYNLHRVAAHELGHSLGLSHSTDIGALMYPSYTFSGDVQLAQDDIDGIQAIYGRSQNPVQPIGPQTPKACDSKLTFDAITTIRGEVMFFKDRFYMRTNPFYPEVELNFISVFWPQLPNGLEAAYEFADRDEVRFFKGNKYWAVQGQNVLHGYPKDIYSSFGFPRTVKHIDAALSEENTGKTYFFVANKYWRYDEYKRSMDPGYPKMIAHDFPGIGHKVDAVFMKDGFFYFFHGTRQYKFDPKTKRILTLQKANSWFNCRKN

For assay [2], the target named is 72 kDa type IV collagenase (Homo sapiens, UniProt P08253).
Chain of 72 kDa type IV collagenase (P08253 whole entry): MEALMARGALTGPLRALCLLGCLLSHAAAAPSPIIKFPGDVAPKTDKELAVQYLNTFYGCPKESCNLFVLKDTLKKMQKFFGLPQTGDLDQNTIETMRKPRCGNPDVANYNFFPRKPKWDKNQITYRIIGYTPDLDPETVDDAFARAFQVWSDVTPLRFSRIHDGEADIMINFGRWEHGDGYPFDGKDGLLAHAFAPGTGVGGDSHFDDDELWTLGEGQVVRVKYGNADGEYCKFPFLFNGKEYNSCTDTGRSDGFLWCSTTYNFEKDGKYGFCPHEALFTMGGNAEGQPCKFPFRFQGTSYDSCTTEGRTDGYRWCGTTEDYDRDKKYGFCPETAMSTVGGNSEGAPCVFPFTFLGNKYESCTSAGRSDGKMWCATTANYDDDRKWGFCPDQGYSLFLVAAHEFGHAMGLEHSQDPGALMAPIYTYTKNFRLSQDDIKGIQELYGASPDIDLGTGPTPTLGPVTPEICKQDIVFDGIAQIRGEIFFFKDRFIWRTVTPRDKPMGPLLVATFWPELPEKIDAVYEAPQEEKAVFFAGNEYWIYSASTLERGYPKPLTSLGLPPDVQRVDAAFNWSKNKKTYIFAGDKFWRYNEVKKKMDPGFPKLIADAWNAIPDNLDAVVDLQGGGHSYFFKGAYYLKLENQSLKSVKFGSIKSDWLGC
Description: Inhibitory activity against the Matrix Metalloprotease 2 (MMP-2)

Chain of Neutrophil collagenase (P22894 whole entry): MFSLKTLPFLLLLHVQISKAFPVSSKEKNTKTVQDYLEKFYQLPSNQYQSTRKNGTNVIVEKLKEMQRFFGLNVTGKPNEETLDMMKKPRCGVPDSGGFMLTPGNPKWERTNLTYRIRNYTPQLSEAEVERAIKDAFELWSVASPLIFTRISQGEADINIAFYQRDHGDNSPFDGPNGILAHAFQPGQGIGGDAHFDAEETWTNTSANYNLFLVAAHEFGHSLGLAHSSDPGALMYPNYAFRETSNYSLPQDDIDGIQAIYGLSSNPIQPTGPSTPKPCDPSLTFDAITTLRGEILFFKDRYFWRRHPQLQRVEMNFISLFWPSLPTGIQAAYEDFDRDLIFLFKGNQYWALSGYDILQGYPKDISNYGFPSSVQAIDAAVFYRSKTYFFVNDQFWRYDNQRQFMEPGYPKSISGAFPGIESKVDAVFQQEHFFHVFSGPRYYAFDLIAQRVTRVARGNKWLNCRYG
Chain of Matrix metalloproteinase-9 (P14780 whole entry): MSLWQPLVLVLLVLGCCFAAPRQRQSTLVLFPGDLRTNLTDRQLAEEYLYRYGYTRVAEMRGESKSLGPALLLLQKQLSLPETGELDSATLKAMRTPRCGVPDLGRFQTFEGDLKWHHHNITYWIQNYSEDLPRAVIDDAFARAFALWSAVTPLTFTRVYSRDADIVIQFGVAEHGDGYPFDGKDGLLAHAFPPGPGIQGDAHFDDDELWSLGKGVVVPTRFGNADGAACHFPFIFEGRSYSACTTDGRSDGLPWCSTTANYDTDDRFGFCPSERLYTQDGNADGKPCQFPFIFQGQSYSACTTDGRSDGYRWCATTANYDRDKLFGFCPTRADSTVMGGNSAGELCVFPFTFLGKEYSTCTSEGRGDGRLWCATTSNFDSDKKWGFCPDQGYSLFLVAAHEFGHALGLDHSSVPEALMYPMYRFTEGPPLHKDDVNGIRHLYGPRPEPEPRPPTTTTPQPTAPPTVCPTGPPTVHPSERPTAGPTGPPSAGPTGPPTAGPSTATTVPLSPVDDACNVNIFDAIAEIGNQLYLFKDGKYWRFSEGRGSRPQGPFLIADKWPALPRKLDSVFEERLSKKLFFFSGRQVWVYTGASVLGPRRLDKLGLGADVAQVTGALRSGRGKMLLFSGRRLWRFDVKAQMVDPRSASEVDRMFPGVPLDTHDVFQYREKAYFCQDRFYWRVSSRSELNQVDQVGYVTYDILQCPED
Description for Interstitial collagenase: Inhibitory activity against the Matrix Metalloprotease 1 (MMP-1)
Description for Neutrophil collagenase: Inhibitory activity against the Matrix Metalloprotease-8

In the case of `O=C(O)CN(Cc1ccc([N+](=O)[O-])cc1)S(=O)(=O)c1ccc(NC(=O)NS(=O)(=O)c2ccc(Cl)cc2)cc1`, the Ki in assay [1] turned out to be 36 nM; on Neutrophil collagenase it was 24 nM; at Interstitial collagenase, 95 nM; in assay [2] it was 21 nM.

In the case of `Cc1ccc(S(=O)(=O)N(CC(=O)NO)Cc2ccc([N+](=O)[O-])cc2)cc1`, the Ki in assay [1] stood at 27 nM; at Neutrophil collagenase it was 24 nM; at Interstitial collagenase it was 30 nM; in assay [2], 20 nM.

For the compound `O=C(CN(Cc1ccc([N+](=O)[O-])cc1)S(=O)(=O)c1cccc(C(F)(F)F)c1)NO`, the Ki stood at 0.8 nM in assay [1], 0.7 nM at Neutrophil collagenase, 5 nM at Interstitial collagenase and 1.1 nM in assay [2].

Consider `O=C(O)CN(Cc1ccc([N+](=O)[O-])cc1)S(=O)(=O)c1ccc(NC(=O)NS(=O)(=O)c2ccccc2)cc1`, for which the Ki is 21 nM in assay [1], 23 nM at Neutrophil collagenase, more than 100 nM at Interstitial collagenase and 18 nM in assay [2].

Consider `CC(C)(C)OC(=O)Nc1ccc(S(=O)(=O)N(CC(=O)NO)Cc2ccc([N+](=O)[O-])cc2)cc1`, for which the Ki in assay [1] came out at 10 nM; at Neutrophil collagenase, 11 nM; on Interstitial collagenase, 17 nM; in assay [2] it was 10 nM.

Consider `O=C(CN(Cc1ccc([N+](=O)[O-])cc1)S(=O)(=O)c1ccc(NC(=O)NS(=O)(=O)c2ccc(F)cc2)cc1)NO`, for which the Ki in assay [1] is 1.2 nM; at Neutrophil collagenase, 0.5 nM; on Interstitial collagenase it was 54 nM; in assay [2], 0.6 nM.

One may read the Ki as the dissociation constant of the complex between target and ligand, obtained from inhibition or displacement.
